Here are results for 2 molecules from patent US5066592A, “Trigramin - a platelet aggregation inhibiting polypeptide” (Temple University of the Commonwealth System of Higher …, priority 1990, dated 1991).

The test system of data set [1] is bleeding time from hamster mesentery lesion. The data set can be described thus: Hamster mesentery bleeding time during intravenous infusion. Type of data set: in vivo, golden Syrian hamsters. The procedure:
Female golden Syrian hamsters (90-150 g) were maintained on food and water ad libitum, but fasted overnight prior to their use in the present experiment. After the administration of anesthesia (65 mg/kg sodium pentobarbital, i.p.), the animals were shaved in preparation for surgery. The trachea was intubated with PE-100 polyethylene tubing to facilitate spontaneous breathing. Cannulation of the right femoral vein was performed to provide an intravenous route for supplemental anesthesia as well as for the administration of various control and experiment agents. A catheter was introduced into the right carotid artery for the continuous monitoring of arterial blood pressure, and a rectal temperature probe was inserted. The animal's body temperature was maintained at 37° C. with a heating pad and lamp.
The shaved abdomen was opened by a mid-line incision and a portion of the small intestine was exteriorized and draped over a lucite pedestal. Exposed tissue was kept warm and moist by continuous superfusion with warmed (37° C.) Mammalian Ringer's Solution. Experimental solutions were infused into the right femoral vein at a rate of 0.199 ml/min with a Harvard pump for a 10 minute period. An arterial vessel (external diameter, 100-200 micrometers) located at the junction of the small intestinal wall and the mesentery was severed 4 minutes after the start of the infusion. Blood was flushed away by the superfusion system and the waste was removed with a vacuum from a well surrounding the viewing pedestal. Bleeding was observed through Zeiss dissecting microscope (20×) and bleeding time was recorded from the time of the cut until the cessation of bleeding by the formation of a hemostatic plug. Each animal was used as its own control with bleeding time determined both during the infusion of saline and the selected experimental agent. […] Four additional animals were infused with trigramin while arterial blood pressure was continuously monitored to determine if it had any direct effect on systemic blood pressure. […]

For data set [2], the target named is T1, fibrinogen receptors on platelets associated with the GPIIb-GPIIIa complex (Homo sapiens, UniProt P05106+P08514).
T1 construct: Human washed platelet suspension was prepared; endogenous in cells; host or cells: washed human platelets, stimulated with 10 micromolar ADP
Briefly: 125I-fibrinogen binding to ADP-stimulated human washed platelets. The settings on record: ADP 10 micromolar-stimulated platelets; double-reciprocal plot FIG. 1; read-out: inhibition constant, Ki (competitive inhibition of fibrinogen binding). The procedure: (§1) The following experiment illustrates that trigramin can inhibit fibrinogen binding to platelets. Human washed platelet suspension was prepared according to the method of Mustard et al., Brit. J. Haemat. 22:193-204 (1972) and suspended in Tyrode's albumin solution (pH 7.35) containing 3.5 mg/ml bovine serum albumin (Sigma, Fraction V). To 420 microliters of this platelet suspension (about 5×10^8 platelets/ml) was added 10 microliters of ^125 I-fibrinogen. An amount of trigramin was added to the suspension, followed 3 minutes later by 10 microliters ADP (final concentration 10 micromolar). Following addition of ADP, the platelet suspension was gently shaken and incubated for about another 10 minutes. Then, 400 microliters of the platelet suspension were centrifuged through silicone oil at 15,000 g in an Eppendorf centrifuge. The amount of ^125 I-fibrinogen bound to the platelet pellet was measured. Nonspecific binding of fibrinogen was measured in the presence of 6 mM EDTA. The IC50 or 50% inhibition of fibrinogen binding was determined.

The test system of data set [3] is exposed fibrinogen receptors on alpha-chymotrypsin-treated platelets. The data set can be described thus: 125I-fibrinogen binding to alpha-chymotrypsin-treated platelets. More on the design: species or system human. The settings on record: data not shown; read-out: IC50 of inhibition of 125I-fibrinogen binding to alpha-chymotrypsin-treated platelets. Here is the method: as §1
(§2) Platelet suspension was prepared as above. Platelets treated with alpha chymotrypsin (Sigma, grade IS) were prepared as described by Kornecki et al., J. Biol. Chem. 258:9349-9356 (1983), except that the incubation time of the platelets with chymotrypsin was reduced from 45 minutes to 20 minutes.

The test system of a further data set is ADP-stimulated platelets. Briefly: Fibrinogen-induced aggregation of ADP-stimulated platelets in suspension (turbidimetric). Type of data set: cell-based, human. The settings on record: ADP 10 micromolar, fibrinogen 200 micrograms/ml, 37° C.; read-out: IC50 for inhibition of aggregation of ADP-stimulated platelets. The procedure: as §2
(§3) Various doses of trigramin (0.25-5.0 microgram/ml) were added to 420 microliters of platelet suspension (3×10^8 platelets per ml). One minute later, 10 microliters ADP (10 micromolar) and 10 microliters fibrinogen (200 micrograms) were added to initiate platelet aggregation. The same procedure using fibrinogen alone (without ADP) was carried out to induce aggregation of the chymotrypsin-treated platelets. The extent of platelet aggregation in each system was measured at 37° C. by the turbidimetric method of Born et al., J. Physiol. (Lond.) 168:178-195 (1963).

Data set [4] has as its system chymotrypsin-treated platelets. The data set can be described thus: Fibrinogen-induced aggregation of chymotrypsin-treated platelets (turbidimetric). Type of data set: cell-based, human. To be noted: fibrinogen alone, without ADP, 37° C.; read-out: IC50 for inhibition of chymotrypsin-treated platelets (aggregation). The procedure:
as §2, §3

For a further data set, the system named is platelets. The data set can be described thus: Platelet aggregation induced by prostaglandin endoperoxide analogue or thrombin. The format is cell-based, human. To be noted: isolated platelet suspension.
A further data set has as its target T2, GPIIb-GPIIIa complex (Homo sapiens, UniProt P05106+P08514).
T2 construct: endogenous in cells; host or cells: human platelets (resting, ADP-stimulated or chymotrypsin-treated)
The data set can be described thus: 125I-trigramin binding to human platelets. An excerpt: There are several similarities between the binding of ^125 I-trigramin and the binding of ^125 I-fibrinogen to human platelets. The binding of both ligands is inhibited by EDTA; by monoclonal antibodies interacting with the GP-IIb-GPIIIa complex (Coller, J. Clin. Invest. 76:101-108 (1985) and Bennett et al., Proc. Natl. Acad. Sci. U.S.A. 80:2417-2421 (1983)); by synthetic peptides representing putative platelet binding sites on the fibrinogen molecule Arg-Gly-Asp-Ser (Gartner et al., J. Biol. Chem. 260:11891-11894 (1985) and Plow et al., Proc. Natl. Acad. Sci. U.S.A. 82:8057-8061 (1985)); and by tyrosyl pentadecapeptide of the C-terminal portion of the gamma chain, […](Kloczewiak et al., Biochemistry 23:1767-1774 (1984). […] These individuals are deficient in the GPIIb-GPIIIa complex.
The binding affinity of trigramin to ADP-stimulated platelets resembles that of monoclonal antibodies.

The target of data set [5] is T3, GPIIb-GPIIIa complex on thrombin-stimulated platelets (Homo sapiens, UniProt P05106+P08514).
T3 construct: endogenous in cells; host or cells: human platelets stimulated with thrombin (0.5 u/ml)
Briefly: 125I-von Willebrand Factor binding to thrombin-stimulated human platelets. To be noted: trigramin 10^-8 M; thrombin 0.5 u/ml; von Willebrand Factor 5 micrograms/ml. The procedure: (§4) The final concentration of von Willebrand Factor was 5 micrograms/ml. The total specific von Willebrand Factor binding was 380+/-55 ng/10^8 platelets in the control sample. […] It is well known that von Willebrand Factor binds to GPIIb-GPIIIa complex on thrombin-stimulated platelets, and to GPIb on ristocetin-stimulated platelets.

Data set [6] deals with T4, GPIb on ristocetin-stimulated platelets (Homo sapiens, UniProt P07359).
T4 construct: endogenous in cells; host or cells: platelets stimulated with ristocetin (0.75 mg/ml)
Briefly: 125I-von Willebrand Factor binding to ristocetin-stimulated platelets. To be noted: ristocetin 0.75 mg/ml. The procedure:
as §4

Data set [7] concerns melanoma cells that contain GPIIIa and vitronectin receptor. The data set can be described thus: Melanoma cell adhesion to fibronectin-covered substrata and cell spreading. Type of data set: cell-based. An excerpt: We have also observed an interaction between trigramin and melanoma cells that contain GPIIIa and vitronectin receptor. […] In the system tested, the biological activity of 0.2 nmoles of trigramin corresponded to 100 nmoles of the peptide glycine-arginine-glycine-aspartic acid-serine ("GRGDS"). This observation is interesting in view of the successful efforts of Humphries et al., Science 233: 467-470 to inhibit metastases of a melanoma cell line in mice by GRGDS.

Data set [8] in a line: Elimination from the circulation. The settings on record: in vivo.
A short description of a further data set: Solubility in water. The format is physicochemical.
Another data set can be described thus: Stability to proteolysis. Type of data set: in vitro ADME.
Data set [9] in a line: Phospholipase A activity of the HPLC-purified material. The format is biochemical. Here is the method:
A high performance liquid chromatography column (250×4.6 mm) containing a wide-pore C-18 silica matrix (e.g., VYDAC TPRP, The Separations Group, Hesperia, Calif.) is equilibrated at 20° C. in 0.1% trifluoroacetic acid. 150 micrograms of the above-prepared crude material in 200 microliters of 0.15M NaCl is injected into the column at a flow rate of 1.0 ml/min. The column is washed for 3 minutes. Fractions are eluted over 50 minutes with a gradient of 0-55% acetonitrile. […] The homogeneity of the purified material is confirmed by SDS-polyacrylamide gel electrophoresis with a silver stain (1 microgram). Trigramin appears as a single band with apparent molecular weight of about 9 kd on 20% gels.

Regarding `CC#CCC(C)[C@H](O)/C=C/[C@@H]1[C@H]2C/C(=C/CCCC(=O)O)C[C@H]2C[C@H]1O` (stereo partly drawn) [Iloplrost, reference compound], the “time until bleeding ceased after the completion of the infusion” value in data set [1] (one hamster, positive control, 2 ng/kg/min) is on record as “approximately 9 minutes”.
Take trigramin: the Ki in data set [2] was 20 nM. Further, the IC50 in data set [3] stood at 11 nM; in the data set on ADP-stimulated platelets, 130 nM; in data set [4] it was 28 nM. The “inhibition of platelet aggregation induced by 9,11-dideoxy-9,11-methanoepoxy-PGF2-alpha” value in the data set with platelets (agonist 2.5 micromolar) is reported as “inhibited platelet aggregation”. Besides, in the data set with platelets (thrombin 0.5 units/ml), the “inhibition of platelet aggregation induced by thrombin” value is recorded as “inhibited platelet aggregation”. The “binding affinity of 125I-trigramin relative to 125I-fibrinogen, judged on dissociation constants” value in the data set with GPIIb-GPIIIa complex (ADP-stimulated platelets) was “approximately 15 fold”. Further, the “binding to platelets of patients with Glanzmann's thrombasthenia” value with GPIIb-GPIIIa complex (platelets deficient in the GPIIb-GPIIIa complex) is reported as “Neither trigramin nor fibrinogen was observed to bind sufficiently”. Further, the “number of trigramin binding sites relative to total number of fibrinogen binding sites exposed by ADP” value with GPIIb-GPIIIa complex (similar on resting, ADP-stimulated and chymotrypsin-treated platelets) came out at 50%. The “blocking of von Willebrand Factor binding to thrombin-stimulated human platelets” value in data set [5] was “specifically blocks”. In addition, the “blocking of von Willebrand Factor binding to ristocetin-stimulated platelets” value in data set [6] is “does not block”. The “adhesion of melanoma cells to fibronectin-covered substrata” value in data set [7] is “blocks the adhesion”. The melanoma cell spreading entry in [7] is “inhibits cell spreading”. Further, the “amount giving corresponding biological activity in the melanoma cell system” value in data set [7] (0.2 nmoles of trigramin corresponded to 100 nmoles of GRGDS) is given as 0.2 nmoles. Moreover, in [1] (hamster, infusion 80 micrograms/kg/min, FIG. 4), the “bleeding time after cessation of infusion” value is “rapid return of bleeding time to normal values”. Also, the “bleeding time of the hamster mesentery during continuous infusion” value in [1] (i.v. infusion, dose-dependent, control bleeding time 3.02 minutes+/-0.43, FIG. 3) is “markedly increased”. Moreover, the “elimination from the circulation” value in [8] is listed as “eliminated from the circulation rapidly”. In addition, the solubility in water result in the data set “Solubility in water” is reported as “soluble in water”. Besides, the stability to proteolysis entry in the data set “Stability to proteolysis” is given as “relatively stable to proteolysis”. In [9], the “phospholipase A activity” value is reported as “devoid of phospholipase A activity”.
